Test results from PubChem BioAssay AID1845202 (Molecular Pharmacology Branch, DTP, NCI, 2023).
Several values for one entry are separate records, joined by “and”; a condition that tells them apart may be missing. Identical values can stand only once.

Test system: DMS 114 tumor spheroids, viability % test/control
Experiment: Anticancer human tumor DMS 114 cell line growth inhibition;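 note: spheroids exposed to compounds for 7 days before read-out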;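 for viability, T/C: luminescence used as a proxy for viable cells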
Settings: spheroids with HUVEC and MSC; for viability, T/C: stronger effect = lower value
Summary of the method: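 Complex spheroids of malignant cells with endothelial cells and mesenchymal stem cells; agents alone or combined, from near clinical Cmax (or 10 microM if unknown) down in half-log steps, 0.25% DMSO final.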

[1] = curve of first compound, second compound 1 µM
[2] = curve of first compound, second compound 3.16 µM
[3] = curve of first compound, second compound 10 µM
[4] = curve of first compound, second compound 31.6 µM
[5] = curve of first compound, second compound 100 µM
[6] = second compound 1 µM, first compound 0.0316 µM
[7] = second compound 1 µM, first compound 0.1 µM
[8] = second compound 1 µM, first compound 0.316 µM
[9] = second compound 1 µM, first compound 1 µM
[10] = second compound 1 µM, first compound 3.16 µM
[11] = second compound 1 µM, first compound 10 µM
[12] = second compound 3.16 µM, first compound 0.0316 µM
[13] = second compound 3.16 µM, first compound 0.1 µM
[14] = second compound 3.16 µM, first compound 0.316 µM
[15] = second compound 3.16 µM, first compound 1 µM
[16] = second compound 3.16 µM, first compound 3.16 µM
[17] = second compound 3.16 µM, first compound 10 µM
[18] = second compound 10 µM, first compound 0.0316 µM
[19] = second compound 10 µM, first compound 0.1 µM
[20] = second compound 10 µM, first compound 0.316 µM
[21] = second compound 10 µM, first compound 1 µM
[22] = second compound 10 µM, first compound 3.16 µM
[23] = second compound 10 µM, first compound 10 µM
[24] = second compound 31.6 µM, first compound 0.0316 µM
[25] = second compound 31.6 µM, first compound 0.1 µM
[26] = second compound 31.6 µM, first compound 0.316 µM
[27] = second compound 31.6 µM, first compound 1 µM
[28] = second compound 31.6 µM, first compound 3.16 µM
[29] = second compound 31.6 µM, first compound 10 µM
[30] = second compound 100 µM, first compound 0.0316 µM
[31] = second compound 100 µM, first compound 0.1 µM
[32] = second compound 100 µM, first compound 0.316 µM
[33] = second compound 100 µM, first compound 1 µM
[34] = second compound 100 µM, first compound 3.16 µM
[35] = second compound 100 µM, first compound 10 µM

## COc1ccc([C@@H](O)c2cc(-c3ncnc4cc(N5CCOCC5)ccc34)c(F)cc2Cl)nn1 + Cn1nnc2c(C(N)=O)ncn2c1=O
[1]
  IC50: 8430 nM
[2]
  IC50: > 10000 nM
[3]
  IC50: 9930 nM
[4]
  IC50: 8470 nM
[5]
  IC50: 5870 nM
[6]
  viability, T/C: 101%
[7]
  viability, T/C: 103%
[8]
  viability, T/C: 99.3%
[9]
  viability, T/C: 114%
[10]
  viability, T/C: 94.8%
[11]
  viability, T/C: 42.3%
[12]
  viability, T/C: 107%
[13]
  viability, T/C: 109%
[14]
  viability, T/C: 102%
[15]
  viability, T/C: 117%
[16]
  viability, T/C: 95.6%
[17]
  viability, T/C: 50.5%
[18]
  viability, T/C: 100%
[19]
  viability, T/C: 108%
[20]
  viability, T/C: 114%
[21]
  viability, T/C: 106%
[22]
  viability, T/C: 86.9%
[23]
  viability, T/C: 49.8%
[24]
  viability, T/C: 104%
[25]
  viability, T/C: 95.8%
[26]
  viability, T/C: 95.8%
[27]
  viability, T/C: 109%
[28]
  viability, T/C: 79.8%
[29]
  viability, T/C: 45%
[30]
  viability, T/C: 88.8%
[31]
  viability, T/C: 95.8%
[32]
  viability, T/C: 95.1%
[33]
  viability, T/C: 81.4%
[34]
  viability, T/C: 69.5%
[35]
  viability, T/C: 34%

## CC1COCCN1c1cc(-c2ccnn2C)c2ccnc(-c3ccn[nH]3)c2n1 (stereo not drawn) + Cn1nnc2c(C(N)=O)ncn2c1=O
[1]
  IC50: 44.3 nM
[2]
  IC50: 55.8 nM
[3]
  IC50: 33.9 nM
[4]
  IC50: < 31.6 nM
[5]
  IC50: < 31.6 nM
[6]
  viability, T/C: 56.6%
[7]
  viability, T/C: 33.9%
[8]
  viability, T/C: 22.8%
[9]
  viability, T/C: 11.8%
[10]
  viability, T/C: 10.1%
[11]
  viability, T/C: 10.4%
[12]
  viability, T/C: 63%
[13]
  viability, T/C: 35.4%
[14]
  viability, T/C: 24.9%
[15]
  viability, T/C: 13.2%
[16]
  viability, T/C: 9.36%
[17]
  viability, T/C: 10.9%
[18]
  viability, T/C: 51%
[19]
  viability, T/C: 35.5%
[20]
  viability, T/C: 21.7%
[21]
  viability, T/C: 11.9%
[22]
  viability, T/C: 10.2%
[23]
  viability, T/C: 11.7%
[24]
  viability, T/C: 36.9%
[25]
  viability, T/C: 30.3%
[26]
  viability, T/C: 20.5%
[27]
  viability, T/C: 13.5%
[28]
  viability, T/C: 9.89%
[29]
  viability, T/C: 10.1%
[30]
  viability, T/C: 24%
[31]
  viability, T/C: 21.3%
[32]
  viability, T/C: 16.1%
[33]
  viability, T/C: 10.8%
[34]
  viability, T/C: 8.42%
[35]
  viability, T/C: 10.2%

## COc1cc2c(cc1O)CCNC21CSC2c3c(OC(C)=O)c(C)c4c(c3C(COC1=O)N1C(O)C3Cc5cc(C)c(OC)c(O)c5C(C21)N3C)OCO4 (stereo not drawn)
Compound 30 pM
  viability, T/C: 102% [middle of 10 runs]
Compound 94.9 pM
  viability, T/C: 102% [middle of 10 runs]
Compound 0.0003 µM
  viability, T/C: 41.4% [middle of 10 runs]
Compound 0.000949 µM
  viability, T/C: 4.04% [middle of 10 runs]
Compound 0.003 µM
  viability, T/C: 0.21% [middle of 7 runs]
Compound alone, run of 10/25/2019
  IC50: 0.253 nM [middle of 10 runs]

## [2H]c1nc(C)nc([2H])c1-c1cc(NC[C@@H](C)c2cccc3c(C(=O)NC)ccnc23)ncn1
Compound 0.0316 µM
  viability, T/C: 103% and 104% (2×)
Compound 0.1 µM
  viability, T/C: 109% and 103% and 111%
Compound 0.316 µM
  viability, T/C: 105% and 99.8% and 113%
Compound 1 µM
  viability, T/C: 105% and 103% and 96.1%
Compound 3.16 µM
  viability, T/C: 101% and 98% and 103%
Compound 10 µM
  viability, T/C: 96.1% and 93.5% and 87.6%
Curve of compound
  IC50: > 10000 nM

## O=C(c1cc(Cc2n[nH]c(=O)c3ccccc23)ccc1F)N1CCN(C(=O)C2CC2)CC1 + CC[C@@]1(O)C(=O)OCc2c1cc1n(c2=O)Cc2cc3c(CN(C)C)c(O)ccc3nc2-1
Curve of first compound, second compound 0.003 µM
  IC50: 5040 nM
Curve of first compound, second compound 0.00949 µM
  IC50: 1830 nM
Curve of first compound, second compound 0.03 µM
  IC50: < 94.9 nM
Curve of first compound, second compound 0.0949 µM
  IC50: < 94.9 nM
Curve of first compound, second compound 0.3 µM
  IC50: < 94.9 nM
Second compound 0.003 µM, first compound 0.0949 µM
  viability, T/C: 104%
Second compound 0.003 µM, first compound 0.3 µM
  viability, T/C: 98.3%
Second compound 0.003 µM, first compound 0.949 µM
  viability, T/C: 96.9%
Second compound 0.003 µM, first compound 3 µM
  viability, T/C: 68.6%
Second compound 0.003 µM, first compound 9.49 µM
  viability, T/C: 27.3%
Second compound 0.003 µM, first compound 30 µM
  viability, T/C: 19.7%
Second compound 0.00949 µM, first compound 0.0949 µM
  viability, T/C: 69.3%
Second compound 0.00949 µM, first compound 0.3 µM
  viability, T/C: 64.6%
Second compound 0.00949 µM, first compound 0.949 µM
  viability, T/C: 64.9%
Second compound 0.00949 µM, first compound 3 µM
  viability, T/C: 39.1%
Second compound 0.00949 µM, first compound 9.49 µM
  viability, T/C: 23.8%
Second compound 0.00949 µM, first compound 30 µM
  viability, T/C: 18%
Second compound 0.03 µM, first compound 0.0949 µM
  viability, T/C: 24%
Second compound 0.03 µM, first compound 0.3 µM
  viability, T/C: 21.4%
Second compound 0.03 µM, first compound 0.949 µM
  viability, T/C: 22.6%
Second compound 0.03 µM, first compound 3 µM
  viability, T/C: 17.8%
Second compound 0.03 µM, first compound 9.49 µM
  viability, T/C: 13.2%
Second compound 0.03 µM, first compound 30 µM
  viability, T/C: 12.6%
Second compound 0.0949 µM, first compound 0.0949 µM
  viability, T/C: 12.9%
Second compound 0.0949 µM, first compound 0.3 µM
  viability, T/C: 13.9%
Second compound 0.0949 µM, first compound 0.949 µM
  viability, T/C: 13.4%
Second compound 0.0949 µM, first compound 3 µM
  viability, T/C: 11.2%
Second compound 0.0949 µM, first compound 9.49 µM
  viability, T/C: 9.09%
Second compound 0.0949 µM, first compound 30 µM
  viability, T/C: 9.45%
Second compound 0.3 µM, first compound 0.0949 µM
  viability, T/C: 8.39%
Second compound 0.3 µM, first compound 0.3 µM
  viability, T/C: 8.45%
Second compound 0.3 µM, first compound 0.949 µM
  viability, T/C: 9.03%
Second compound 0.3 µM, first compound 3 µM
  viability, T/C: 6.88%
Second compound 0.3 µM, first compound 9.49 µM
  viability, T/C: 5.76%
Second compound 0.3 µM, first compound 30 µM
  viability, T/C: 6.93%
